# ChEMBL document CHEMBL1201862, “PubChem BioAssay data set” (2004)
#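 Five concentrations, 48 hours, 96-well plates. GI50: concentration for 50% inhibition of growth.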 Active and inactive are the calls of the source. Rule as the data show it: active = GI50 up to about 1.1 µM and inactive = higher.
# Experiments:
# Experiment in all cases: DTP human tumour cell line panel, 48 h
# [1] = system: HCT-116
# [2] = system: SK-MEL-28
# [3] = system: UO-31
# [4] = system: MDA-MB-435
# [5] = system: SNB-75
# [6] = system: OVCAR-5
# [7] = system: RPMI-8226
# [8] = system: MCF7
# [9] = system: SK-MEL-2
# [10] = system: CCRF-CEM
# [11] = system: HCT-15
# [12] = system: SW-620
# [13] = system: ACHN
# [14] = system: NCI-H460
# [15] = system: KM12
# [16] = system: BT-549
# [17] = system: SK-MEL-5
# [18] = system: M14
# [19] = system: SNB-19
# [20] = system: LOX IMVI
# [21] = system: OVCAR-3
# [22] = system: NCI-H23
# [23] = system: NCI-H226
# [24] = system: HL-60
# [25] = system: SF-539
# [26] = system: 786-0
# [27] = system: SN12C
# [28] = system: K562
# [29] = system: Hs-578T
# [30] = system: EKVX
# [31] = system: PC-3
# [32] = system: A498
# [33] = system: SR
# [34] = system: IGROV-1
# [35] = system: SF-268
# [36] = system: HCC 2998
# [37] = system: MDA-N
# [38] = system: HOP-62
# [39] = system: COLO 205
# [40] = system: NCI/ADR-RES
# [41] = system: DU-145
# [42] = system: OVCAR-8
# [43] = system: UACC-62
# [44] = system: TK-10
# [45] = system: SK-OV-3
# [46] = system: MDA-MB-231
# [47] = system: Malme-3M
# [48] = system: U-251
# [49] = system: NCI-H522
# [50] = system: T47D
# [51] = system: OVCAR-4
# [52] = system: HT-29
# [53] = system: A549
# [54] = system: SF-295
# [55] = system: CAKI-1
# [56] = system: MOLT-4
# [57] = system: UACC-257
# [58] = system: HOP-92
# [59] = system: RXF 393
compound,measurement,setting,value
O=C(c1ccccc1Br)C(F)(F)F,GI50,[1],> 100 µM (inactive)
same,GI50,[2],> 100 µM (inactive)
same,GI50,[3],> 100 µM (inactive)
same,GI50,[4],> 100 µM (inactive)
same,GI50,[5],> 100 µM (inactive)
same,GI50,[6],> 100 µM (inactive)
same,GI50,[7],> 100 µM (inactive)
same,GI50,[8],> 100 µM (inactive)
same,GI50,[9],> 10 µM (inactive)
same,GI50,[10],> 100 µM (inactive)
same,GI50,[11],> 100 µM
same,GI50,[12],> 100 µM (inactive)
same,GI50,[13],> 100 µM (inactive)
same,GI50,[14],> 100 µM (inactive)
same,GI50,[15],> 100 µM (inactive)
same,GI50,[16],> 100 µM (inactive)
same,GI50,[17],> 100 µM (inactive)
same,GI50,[18],> 100 µM (inactive)
same,GI50,[19],> 100 µM (inactive)
same,GI50,[20],> 100 µM (inactive)
same,GI50,[21],> 100 µM (inactive)
same,GI50,[22],> 100 µM (inactive)
same,GI50,[23],> 100 µM (inactive)
same,GI50,[24],> 100 µM (inactive)
same,GI50,[25],> 100 µM (inactive)
same,GI50,[26],> 100 µM (inactive)
same,GI50,[27],> 100 µM (inactive)
same,GI50,[28],> 100 µM (inactive)
same,GI50,[29],> 100 µM (inactive)
same,GI50,[30],> 100 µM (inactive)
same,GI50,[31],> 100 µM (inactive)
same,GI50,[32],> 100 µM (inactive)
same,GI50,[33],> 100 µM (inactive)
same,GI50,[34],> 100 µM (inactive)
same,GI50,[35],> 100 µM (inactive)
same,GI50,[36],> 100 µM (inactive)
same,GI50,[37],> 100 µM (inactive)
same,GI50,[38],> 100 µM (inactive)
same,GI50,[39],88.9 µM (inactive)
same,GI50,[40],> 100 µM (inactive)
same,GI50,[41],> 100 µM (inactive)
same,GI50,[42],> 100 µM (inactive)
same,GI50,[43],> 100 µM (inactive)
same,GI50,[44],> 100 µM (inactive)
same,GI50,[45],> 100 µM (inactive)
same,GI50,[46],> 100 µM (inactive)
same,GI50,[47],> 100 µM (inactive)
same,GI50,[48],> 100 µM (inactive)
same,GI50,[49],> 100 µM (inactive)
same,GI50,[50],48.5 µM (inactive)
same,GI50,[51],> 100 µM (inactive)
same,GI50,[52],> 100 µM (inactive)
same,GI50,[53],> 100 µM (inactive)
same,GI50,[54],> 100 µM (inactive)
same,GI50,[55],> 100 µM (inactive)
same,GI50,[56],> 100 µM (inactive)
COc1cc(O)cc2oc(-c3ccc(O)cc3)cc(=O)c12,GI50,[1],44.4 µM (inactive)
same,GI50,[2],> 100 µM (inactive)
same,GI50,[3],55 µM (inactive)
same,GI50,[4],> 100 µM (inactive)
same,GI50,[5],14 µM (inactive)
same,GI50,[6],> 100 µM (inactive)
same,GI50,[7],66.1 µM (inactive)
same,GI50,[8],> 100 µM (inactive)
same,GI50,[57],> 100 µM (inactive)
same,GI50,[9],52.8 µM (inactive)
same,GI50,[10],> 100 µM (inactive)
same,GI50,[11],> 100 µM
same,GI50,[12],49.3 µM (inactive)
same,GI50,[13],64.7 µM (inactive)
same,GI50,[14],67.5 µM (inactive)
same,GI50,[58],71.9 µM (inactive)
same,GI50,[15],> 100 µM (inactive)
same,GI50,[16],47.1 µM (inactive)
same,GI50,[17],> 100 µM (inactive)
same,GI50,[18],> 100 µM (inactive)
same,GI50,[19],> 100 µM (inactive)
same,GI50,[20],> 100 µM (inactive)
same,GI50,[21],> 100 µM (inactive)
same,GI50,[22],> 100 µM (inactive)
same,GI50,[24],> 100 µM (inactive)
same,GI50,[25],> 100 µM (inactive)
same,GI50,[26],68.4 µM (inactive)
same,GI50,[27],> 100 µM (inactive)
same,GI50,[28],> 100 µM (inactive)
same,GI50,[29],57 µM (inactive)
same,GI50,[30],> 100 µM (inactive)
same,GI50,[31],> 100 µM (inactive)
same,GI50,[32],29.6 µM (inactive)
same,GI50,[33],37.8 µM (inactive)
same,GI50,[34],47.3 µM (inactive)
same,GI50,[35],67.8 µM (inactive)
same,GI50,[37],> 100 µM (inactive)
same,GI50,[38],74.6 µM (inactive)
same,GI50,[39],> 100 µM (inactive)
same,GI50,[40],> 100 µM (inactive)
same,GI50,[41],> 100 µM (inactive)
same,GI50,[42],34.4 µM (inactive)
same,GI50,[43],83.9 µM (inactive)
same,GI50,[44],> 100 µM (inactive)
same,GI50,[45],> 100 µM (inactive)
same,GI50,[59],32.7 µM (inactive)
same,GI50,[46],> 100 µM (inactive)
same,GI50,[47],76.6 µM (inactive)
same,GI50,[48],71.4 µM (inactive)
same,GI50,[49],22.2 µM (inactive)
same,GI50,[50],50.4 µM (inactive)
same,GI50,[52],> 100 µM (inactive)
same,GI50,[53],> 100 µM (inactive)
same,GI50,[54],36.2 µM (inactive)
same,GI50,[55],64.3 µM (inactive)
same,GI50,[56],> 100 µM (inactive)
